Reference: patent US7879852B2, “Melanocortin receptor agonists” (LG Life Sciences Ltd., priority 2006, dated 2011)

Biological target: T1, human melanocortin receptor 4 (MC4R) (Homo sapiens, UniProt P32245)
T1 construct: expressed in transfected cells; grown with 200 ug/ml Geneticin
Assay: Luciferase assay
Type: cell-based
Settings: agonistic activity at MC4R (Table 18); patent does not state whether luciferase or cAMP assay
Description: Cell lines expressing human melanocortin receptor 4 (MC4R) were dissociated from tissue culture dishes by rinsing with Ca^++, Mg^++ free DPBS, treated with 1× Trypsin/EDTA solution for 1 min at 37° C., and resuspended with DMRM (GIBCO-BRL) supplemented with 10% FBS. The cells were counted and diluted with DMEM supplemented with 10% FBS and 200 ug/ml of Geneticin to […]. 90 ul of cell suspension was plated onto each well of 96-well black and clear bottom culture plates (Costar). After the incubation for 24 h in the atmosphere of 6% CO2 at 37° C., 10 ul of NDP-MSH and test compounds diluted in DMSO were added to each well. The final DMSO concentration was 1%. After 4 h of incubation in the atmosphere of 6% CO2 at 37° C., 50 ul of Bright-Glo (Promega) was added to each well. Luciferase activity was measured by using L-Max luminometer (Molecular Device). The amount of luciferase activity induced by treatment with NDP-MSH was defined as 100% to obtain the relative efficacy of test compounds. The EC0.5 MSH was defined as the concentration of test compounds that results in half maximal activity of NDP-MSH. The EC50 was defined as the concentration of test compound that results in half maximal activity of its own.

T1 sequence (P32245 whole entry): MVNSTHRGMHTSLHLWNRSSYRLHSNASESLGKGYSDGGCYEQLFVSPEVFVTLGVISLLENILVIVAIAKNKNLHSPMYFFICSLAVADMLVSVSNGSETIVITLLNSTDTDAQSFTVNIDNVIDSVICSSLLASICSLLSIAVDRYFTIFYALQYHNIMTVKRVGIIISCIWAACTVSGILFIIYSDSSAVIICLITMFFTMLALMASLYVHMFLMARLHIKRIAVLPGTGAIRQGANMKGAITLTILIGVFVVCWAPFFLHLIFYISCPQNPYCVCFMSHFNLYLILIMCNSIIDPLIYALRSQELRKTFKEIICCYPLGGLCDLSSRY

Row | SMILES | EC50
1 | CN(C)C(=O)[C@@H]1C[C@H](N(C(=O)C(C)(C)C)C2CCC(C)(C)CC2)CN1C(=O)[C@@H]1CN(C(C)(C)C)C[C@H]1c1ccc(F)cc1F [Example A1, (4S)-1-{[(3S,4R)-1-tert-butyl-4-(2,4-difluorophenyl)pyrrolidine-3-yl]carbonyl}-4-[(4,4-dimethylcyclohexyl)(2,2-dimethylpropanoyl)amino]-N,N-dimethyl-L-prolineamide] | 13 nM
2 | CCNC(=O)[C@@H]1C[C@H](N(C(=O)[C@@H]2CCCO2)C2CCC(C)(C)CC2)CN1C(=O)[C@@H]1CN(C(C)(C)C)C[C@H]1c1ccc(Cl)cc1 [Example A3, (4S)-1-{[(3S,4R)-1-tert-butyl-4-(4-chlorophenyl)pyrrolidine-3-yl]carbonyl}-4-{(4,4-dimethylcyclohexyl)[(2S)-tetrahydrofuran-2-ylcarbonyl]amino}-N-ethyl-L-prolineamide] | 12 nM
3 | CCN(C)C(=O)[C@@H]1C[C@H](N(C(=O)C(C)(C)CO)C2CCC(C)(C)CC2)CN1C(=O)[C@@H]1CN(C(C)(C)C)C[C@H]1c1ccc(Cl)cc1 [Example A4, (4S)-1-{[(3S,4R)-1-tert-butyl-4-(4-chlorophenyl)pyrrolidine-3-yl]carbonyl}-4-[(4,4-dimethylcyclohexyl)(3-hydroxy-2,2-dimethylpropanoyl)amino]-N-ethyl-N-methyl-L-prolineamide] | 3 nM
4 | CN(C)C(=O)[C@@H]1C[C@H](N(C(=O)C(C)(C)C)C2CCC(F)(F)CC2)CN1C(=O)[C@@H]1CN(C(C)(C)C)C[C@H]1c1ccc(Cl)cc1 [Example A5, (4S)-1-{[(3S,4R)-1-tert-butyl-4-(4-chlorophenyl)pyrrolidine-3-yl]carbonyl}-4-[(4,4-difluorocyclohexyl)(2,2-dimethylpropanoyl)amino]-N,N-dimethyl-L-prolineamide] | 33 nM
5 | CCNC(=O)[C@@H]1C[C@H](N(C(=O)C(C)(C)C)C2CCC(F)(F)CC2)CN1C(=O)[C@@H]1CN(C(C)(C)C)C[C@H]1c1ccc(Cl)cc1 [Example A6, (4S)-1-{[(3S,4R)-1-tert-butyl-4-(4-chlorophenyl)pyrrolidine-3-yl]carbonyl}-4-[(4,4-difluorocyclohexyl)(2,2-dimethylpropanoyl)amino]-N-ethyl-L-prolineamide] | 24 nM
6 | CN1C[C@@H](C(=O)N2C[C@@H](N(C(=O)C(C)(C)C)[C@H]3CC[C@@H](C)CC3)C[C@H]2C(N)=O)[C@H](c2ccc(Cl)cc2)C1 [Example A7, (4S)-1-{[(3S,4R)-4-(4-Chlorophenyl)-1-methylpyrrolidine-3-yl]carbonyl}-4-[(2,2-dimethylpropanoyl)(cis-4-methylcyclohexyl)amino]-L-prolineamide] | 24 nM
7 | CC1(C)CCC(N(C(=O)C(C)(C)C)[C@H]2CCN(C(=O)[C@@H]3CN(C(C)(C)C)C[C@H]3c3ccc(Cl)cc3)C2)CC1 [Example A9, N-[(3S,4R)-1-{[(3S,4R)-1-T-butyl-4-(4-chlorophenyl)pyrrolidine-3-yl]carbonyl}pyrrolidine-3-yl]-N-(4,4-dimethylcyclohexyl)-2,2-dimethylpropaneamide] | 45 nM
8 | CCN(C)C(=O)[C@@H]1C[C@H](N(C(=O)C(C)(C)C)C2CCC(F)(F)CC2)CN1C(=O)[C@@H]1CN(C(C)(C)C)C[C@H]1c1ccc(Cl)cc1 [Example A75] | 79 nM
9 | CCN(C)C(=O)[C@@H]1C[C@H](N(C(=O)[C@@H]2CCCO2)C2CCC3(CC2)CC3)CN1C(=O)[C@@H]1CN(C(C)(C)C)C[C@H]1c1ccc(Cl)cc1 [Example A90] | 30 nM
10 | CC(=O)N(C1CCC(C)(C)CC1)[C@H]1C[C@@H](C(=O)N2CCOCC2)N(C(=O)[C@@H]2CN(C(C)(C)C)C[C@H]2c2ccc(Cl)cc2)C1 [Example A96] | 38 nM
11 | CC1(C)CCC(N(C(=O)C(C)(C)C)[C@H]2C[C@@H](C(=O)Nc3ccccc3)N(C(=O)[C@@H]3CN(C(C)(C)C)C[C@H]3c3ccc(Cl)cc3)C2)CC1 [Example A99] | 69 nM
